Measurements: patent US10206394B2, “Herbicidal compounds” (Syngenta Participations AG, priority 2014, dated 2019)
Where two headings read alike, the source gives them in different places.

Columns and labels:
Assay in all cases: Glasshouse assay for herbicidal activity (pre- and post-emergence), percentage phytotoxicity
Assay type in all cases: in vivo
[1] = tested on: Alopecurus myosuroides (ALOMY); settings: Alopecurus myosuroides
Procedure, shortened: (§1)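 Seeds were sown in standard soil in pots and grown one day (pre-emergence) or about 12 days (post-emergence) before herbicide application. Plants were kept at 24/18 °C (warm-climate) or 20/16 °C (cool-climate) day/night, 16 h light, 65% humidity, watered twice daily, and damage was scored visually at 15 DAA (POST) or 20 DAA (PRE).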

[2] = tested on: Avena fatua (AVEFA); settings: Avena fatua
Procedure, shortened: as §1

[3] = tested on: Echinochloa crus-galli (ECHCG); settings: Echinochloa crus-galli
Procedure, shortened: as §1

[4] = tested on: Lolium perenne (LOLPE); settings: Lolium perenne
Procedure, shortened: as §1

[5] = post-emergence, 360 h, POST-emergence, rate 250 g/ha, visual score 15 DAA (100%=total damage, 0%=no damage), read-out: Post-emergence herbicidal activity (percentage phytotoxicity) ALOMY POST
[6] = pre-emergence, 480 h, PRE-emergence, rate 250 g/ha, visual score 20 DAA (100%=total damage, 0%=no damage), read-out: Pre-emergence herbicidal activity (percentage phytotoxicity) ALOMY PRE
[7] = post-emergence, 360 h, POST-emergence, rate 250 g/ha, visual score 15 DAA (100%=total damage, 0%=no damage), read-out: Post-emergence herbicidal activity (percentage phytotoxicity) AVEFA POST
[8] = pre-emergence, 480 h, PRE-emergence, rate 250 g/ha, visual score 20 DAA (100%=total damage, 0%=no damage), read-out: Pre-emergence herbicidal activity (percentage phytotoxicity) AVEFA PRE
[9] = post-emergence, 360 h, POST-emergence, rate 250 g/ha, visual score 15 DAA (100%=total damage, 0%=no damage), read-out: Post-emergence herbicidal activity (percentage phytotoxicity) ECHCG POST
[10] = pre-emergence, 480 h, PRE-emergence, rate 250 g/ha, visual score 20 DAA (100%=total damage, 0%=no damage), read-out: Pre-emergence herbicidal activity (percentage phytotoxicity) ECHCG PRE
[11] = post-emergence, 360 h, POST-emergence, rate 250 g/ha, visual score 15 DAA (100%=total damage, 0%=no damage), read-out: Post-emergence herbicidal activity (percentage phytotoxicity) LOLPE POST
[12] = pre-emergence, 480 h, PRE-emergence, rate 250 g/ha, visual score 20 DAA (100%=total damage, 0%=no damage), read-out: Pre-emergence herbicidal activity (percentage phytotoxicity) LOLPE PRE
[13] = post-emergence, 360 h, 250 g/ha, post-emergence, 15 DAA, visual assessment (100%=total damage, 0%=no damage), read-out: Post-emergence herbicidal activity (percentage phytotoxicity) ALOMY POST
[14] = pre-emergence, 480 h, 250 g/ha, pre-emergence, 20 DAA, visual assessment (100%=total damage, 0%=no damage), read-out: Pre-emergence herbicidal activity (percentage phytotoxicity) ALOMY PRE
[15] = post-emergence, 360 h, 250 g/ha, post-emergence, 15 DAA, visual assessment (100%=total damage, 0%=no damage), read-out: Post-emergence herbicidal activity (percentage phytotoxicity) AVEFA POST
[16] = pre-emergence, 480 h, 250 g/ha, pre-emergence, 20 DAA, visual assessment (100%=total damage, 0%=no damage), read-out: Pre-emergence herbicidal activity (percentage phytotoxicity) AVEFA PRE
[17] = post-emergence, 360 h, 250 g/ha, post-emergence, 15 DAA, visual assessment (100%=total damage, 0%=no damage), read-out: Post-emergence herbicidal activity (percentage phytotoxicity) ECHCG POST
[18] = pre-emergence, 480 h, 250 g/ha, pre-emergence, 20 DAA, visual assessment (100%=total damage, 0%=no damage), read-out: Pre-emergence herbicidal activity (percentage phytotoxicity) ECHCG PRE
[19] = post-emergence, 360 h, 250 g/ha, post-emergence, 15 DAA, visual assessment (100%=total damage, 0%=no damage), read-out: Post-emergence herbicidal activity (percentage phytotoxicity) LOLPE POST
[20] = pre-emergence, 480 h, 250 g/ha, pre-emergence, 20 DAA, visual assessment (100%=total damage, 0%=no damage), read-out: Pre-emergence herbicidal activity (percentage phytotoxicity) LOLPE PRE
[21] = pre-emergence, 480 h, Rate 250 g/ha, pre-emergence, assessed visually 20 DAA, 100%=total damage, 0%=no damage, read-out: Pre-emergence herbicidal activity (percentage phytotoxicity) ALOMY PRE
[22] = pre-emergence, 480 h, Rate 250 g/ha, pre-emergence, assessed visually 20 DAA, 100%=total damage, 0%=no damage, read-out: Pre-emergence herbicidal activity (percentage phytotoxicity) AVEFA PRE
[23] = post-emergence, 360 h, Rate 250 g/ha, post-emergence, assessed visually 15 DAA, 100%=total damage, 0%=no damage, read-out: Post-emergence herbicidal activity (percentage phytotoxicity) ECHCG POST
[24] = pre-emergence, 480 h, Rate 250 g/ha, pre-emergence, assessed visually 20 DAA, 100%=total damage, 0%=no damage, read-out: Pre-emergence herbicidal activity (percentage phytotoxicity) ECHCG PRE
[25] = pre-emergence, 480 h, Rate 250 g/ha, pre-emergence, assessed visually 20 DAA, 100%=total damage, 0%=no damage, read-out: Pre-emergence herbicidal activity (percentage phytotoxicity) LOLPE PRE

Compound	pest or weed control at 250 g/ha [1, 5] [%]	pest or weed control at 250 g/ha [1, 6] [%]	pest or weed control at 250 g/ha [2, 7] [%]	pest or weed control at 250 g/ha [2, 8] [%]	pest or weed control at 250 g/ha [3, 9] [%]	pest or weed control at 250 g/ha [3, 10] [%]	pest or weed control at 250 g/ha [4, 11] [%]	pest or weed control at 250 g/ha [4, 12] [%]	pest or weed control at 250 g/ha [1, 13] [%]	pest or weed control at 250 g/ha [1, 14] [%]	pest or weed control at 250 g/ha [2, 15] [%]	pest or weed control at 250 g/ha [2, 16] [%]	pest or weed control at 250 g/ha [3, 17] [%]	pest or weed control at 250 g/ha [3, 18] [%]	pest or weed control at 250 g/ha [4, 19] [%]	pest or weed control at 250 g/ha [4, 20] [%]	further results
Cc1cc(-c2ncc(Br)cn2)cc(C)c1C1C(=O)CC(CC(=O)NC(C)(C)C)C1=O (stereo not drawn) [Compound B268]	90	100	100	90	100	100	100	100	–	–	–	–	–	–	–	–	–
CC#Cc1cc(C)c(C2C(=O)CC(CC(=O)NCc3ccc(OC)cc3)C2=O)c(C)c1 (stereo not drawn) [Compound B184]	90	90	90	90	100	100	90	100	–	–	–	–	–	–	–	–	–
Cc1cc(OCC(F)(F)F)cc(C)c1C1C(=O)CC(CC(=O)NC(C)C)C1=O (stereo not drawn) [Compound B208]	90	90	90	80	100	100	90	80	–	–	–	–	–	–	–	–	–
Cc1cc(-c2ccc(F)cn2)cc(C)c1C1C(=O)CC(CC(=O)N(C)C(C)C)C1=O (stereo not drawn) [Compound B396]	–	–	–	–	–	–	–	–	–	–	–	–	–	–	–	–	pest or weed control at 250 g/ha ([1]; post-emergence, 360 h, Rate 250 g/ha, post-emergence, visual assessment 15 DAA, 100%=total damage, 0%=no damage, read-out: Post-emergence herbicidal activity (percentage phytotoxicity) ALOMY POST): 90%; pest or weed control at 250 g/ha ([1]; pre-emergence, 480 h, Rate 250 g/ha, pre-emergence, visual assessment 20 DAA, 100%=total damage, 0%=no damage, read-out: Pre-emergence herbicidal activity (percentage phytotoxicity) ALOMY PRE): 100%; pest or weed control at 250 g/ha ([2]; post-emergence, 360 h, Rate 250 g/ha, post-emergence, visual assessment 15 DAA, 100%=total damage, 0%=no damage, read-out: Post-emergence herbicidal activity (percentage phytotoxicity) AVEFA POST): 100%; pest or weed control at 250 g/ha ([2]; pre-emergence, 480 h, Rate 250 g/ha, pre-emergence, visual assessment 20 DAA, 100%=total damage, 0%=no damage, read-out: Pre-emergence herbicidal activity (percentage phytotoxicity) AVEFA PRE): 100%; pest or weed control at 250 g/ha ([3]; post-emergence, 360 h, Rate 250 g/ha, post-emergence, visual assessment 15 DAA, 100%=total damage, 0%=no damage, read-out: Post-emergence herbicidal activity (percentage phytotoxicity) ECHCG POST): 100%; pest or weed control at 250 g/ha ([3]; pre-emergence, 480 h, Rate 250 g/ha, pre-emergence, visual assessment 20 DAA, 100%=total damage, 0%=no damage, read-out: Pre-emergence herbicidal activity (percentage phytotoxicity) ECHCG PRE): 100%; pest or weed control at 250 g/ha ([4]; post-emergence, 360 h, Rate 250 g/ha, post-emergence, visual assessment 15 DAA, 100%=total damage, 0%=no damage, read-out: Post-emergence herbicidal activity (percentage phytotoxicity) LOLPE POST): 90%; pest or weed control at 250 g/ha ([4]; pre-emergence, 480 h, Rate 250 g/ha, pre-emergence, visual assessment 20 DAA, 100%=total damage, 0%=no damage, read-out: Pre-emergence herbicidal activity (percentage phytotoxicity) LOLPE PRE): 100%
Cc1cc(C)c(C2C(=O)CC(CC(=O)NC3=NOC(C)(C)C3)C2=O)c(C)c1 (stereo not drawn) [Compound B42]	–	–	–	–	–	–	–	–	60	0	60	0	0	0	40	0	–
Cc1cc(C)c(C2C(=O)CC(CC(=O)NC(C#N)C3CC3)C2=O)c(C)c1 (stereo not drawn) [Compound B58]	–	–	–	–	–	–	–	–	50	10	70	40	20	20	50	20	–
Cc1cc(-c2ncc(F)cc2F)cc(C)c1C1C(=O)CC(CC(=O)NC/C=C/Cl)C1=O (stereo not drawn) [Compound B290]	100	100	100	100	100	100	100	100	–	–	–	–	–	–	–	–	–
C=CCCNC(=O)CC1CC(=O)C(c2c(C)cc(C)cc2C)C1=O (stereo not drawn) [Compound A94]	–	–	–	–	–	–	–	–	–	–	–	–	–	–	–	–	pest or weed control at 250 g/ha [1, 21]: 90%; pest or weed control at 250 g/ha [2, 22]: 20%; pest or weed control at 250 g/ha [3, 23]: 80%; pest or weed control at 250 g/ha [3, 24]: 60%; pest or weed control at 250 g/ha [4, 25]: 90%
C/C=C/c1cc(C)c(C2C(=O)CC(CC(=O)NCc3ccc(OC)cc3)C2=O)c(CC)c1 (stereo not drawn) [Compound B189]	90	60	90	40	100	80	90	80	–	–	–	–	–	–	–	–	–
Cc1cc(C)c(C2C(=O)CC(CC(=O)NCCC3=CCCCC3)C2=O)c(C)c1 (stereo not drawn) [Compound A91]	–	–	–	–	–	–	–	–	–	–	–	–	–	–	–	–	pest or weed control at 250 g/ha ([1]; post-emergence, 360 h, Rate 250 g/ha, post-emergence, assessed visually 15 DAA, 100%=total damage, 0%=no damage, read-out: Post-emergence herbicidal activity (percentage phytotoxicity) ALOMY POST): 10%; pest or weed control at 250 g/ha [1, 21]: 30%; pest or weed control at 250 g/ha ([2]; post-emergence, 360 h, Rate 250 g/ha, post-emergence, assessed visually 15 DAA, 100%=total damage, 0%=no damage, read-out: Post-emergence herbicidal activity (percentage phytotoxicity) AVEFA POST): 0%; pest or weed control at 250 g/ha [2, 22]: 30%; pest or weed control at 250 g/ha [3, 23]: 0%; pest or weed control at 250 g/ha [3, 24]: 20%; pest or weed control at 250 g/ha ([4]; post-emergence, 360 h, Rate 250 g/ha, post-emergence, assessed visually 15 DAA, 100%=total damage, 0%=no damage, read-out: Post-emergence herbicidal activity (percentage phytotoxicity) LOLPE POST): 70%; pest or weed control at 250 g/ha [4, 25]: 70%
Cc1cc(-c2ncc(Cl)cn2)cc(C)c1C1C(=O)C[C@H](CC(=O)NC(C)(C)C)C1=O (stereo partly drawn) [Compound B50]	–	–	–	–	–	–	–	–	100	90	90	70	100	100	100	100	–
C#CC(C)(C)NC(=O)CC1CC(=O)C(c2c(C)cc(Br)cc2C)C1=O (stereo not drawn) [Compound B127]	–	–	–	–	–	–	–	–	90	90	100	80	100	70	90	70	–
